Reference: ChEMBL document CHEMBL1212941, “Eucapsitrione, an anti-Mycobacterium tuberculosis anthraquinone derivative from the cultured freshwater cyanobacterium Eucapsis sp” (J Nat Prod, 2010)
In brackets after ≈: the same amount, converted by molar mass. Activity calls are given as the source filed them. The rule behind the calls is not given here.

What was measured:
Escherichia coli = experiment: Antibacterial activity against Escherichia coli at 55 uM by broth microdilution method; assay type: functional, organism-based
[1] = tested on: Mycobacterium tuberculosis; experiment: Antimycobacterial activity against Mycobacterium tuberculosis H37Rv by microplate alamar blue assay; assay type: functional
Candida albicans = experiment: Antifungal activity against Candida albicans at 55 uM by broth microdilution method; assay type: functional, organism-based
[2] = tested on: Mycobacterium tuberculosis; experiment: Antimycobacterial activity against Mycobacterium tuberculosis H37Rv by low oxygen recovery assay; assay type: functional
Staphylococcus aureus = experiment: Antibacterial activity against Staphylococcus aureus at 55 uM by broth microdilution method; assay type: functional, organism-based
[3] = tested on: Mycolicibacterium smegmatis; experiment: Antimycobacterial activity against Mycobacterium smegmatis at 55 uM by broth microdilution method; assay type: functional, organism-based
Vero = experiment: Cytotoxicity against african green monkey Vero cells; assay type: cell-based; conditions: Chlorocebus sabaeus

O=c1c2cccc(O)c2c(=O)c2c(O)c3c(cc12)c(=O)c1c(O)cccc13 [EUCAPSITRIONE]
Activity (Escherichia coli): inactive
MIC [1]: 3.1 µM (≈ 1.11 µg/mL)
Activity (Candida albicans): inactive
MIC [2]: 6.4 µM (≈ 2.29 µg/mL)
Activity (Staphylococcus aureus): inactive
Activity [3]: inactive
IC50 (Vero): > 28 µM
